Key:
[1] = tested on: kochia; test: Test A pre-/postemergence herbicide test; format: in vivo, Kochia scoparia; conditions: for Plant response rating, Kochia: 0 to 100 scale
How it was run: (§1)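 Directed soil spray to seeded pots (preemergence) or spray onto one- to two-leaf seedlings 2–10 cm tall (postemergence); loam/sand substrate throughout. Evaluated visually after about 10 days against untreated plants, 0 = no effect, 100 = complete control.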

[2] = tested on: ragweed; test: Test A pre-/postemergence herbicide test; format: in vivo, Ambrosia elatior; conditions: for Plant response rating, Ragweed: 0 to 100 scale
How it was run: as §1

[3] = tested on: ryegrass, Italian; test: Test A pre-/postemergence herbicide test; format: in vivo, Lolium multiflorum; conditions: for Plant response rating, Ryegrass, Italian: 0 to 100 scale
How it was run: as §1

[4] = tested on: blackgrass; test: Test A postemergence herbicide test; format: in vivo, Alopecurus myosuroides
How it was run: (§2)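 Young potted plants in a loam–sand mix, one- to two-leaf stage and 2–10 cm tall, receive the test chemical postemergence and stay in a greenhouse for approximately 10 days. Injury is then judged by eye against untreated plants, scored 0 (none) to 100 (complete control).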

[5] = tested on: galium; test: Test A postemergence herbicide test; format: in vivo, Galium aparine; conditions: for Plant response rating, Galium: 125 g ai/ha, 0 to 100 scale; for Galium plant response rating (0 to 100 scale, 0 is no effect, 100 is complete control): 500 g ai/ha
How it was run: as §2

[6] = tested on: rice; test: Test C flooded paddy test; format: in vivo, Oryza sativa; conditions: Flood
How it was run: (§3)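 Visual ratings from 0, no effect, to 100, complete control, were made against untreated controls after 13–15 greenhouse days. Compounds had gone straight into paddy water 3 cm above the soil, kept at that depth, on 2-leaf-stage plants.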

[7] = tested on: sedge, umbrella; test: Test C flooded paddy test; format: in vivo, Cyperus difformis; conditions: Flood
How it was run: as §3

[8] = tested on: ducksalad; test: Test C flooded paddy test; format: in vivo, Heteranthera limosa; conditions: Flood
How it was run: as §3

[9] = tested on: barnyardgrass; test: Test C flooded paddy test; format: in vivo, Echinochloa crus-galli; conditions: Flood
How it was run: as §3

[10] = tested on: velvetleaf; test: Test A pre-/postemergence herbicide test; format: in vivo, Abutilon theophrasti; conditions: for Plant response rating, Velvetleaf: 0 to 100 scale
How it was run: as §1

[11] = 125 g ai/ha, visual rating, 0 no effect, 100 complete control, approximately 10 days, preemergence
[12] = Postemergence, 125 g ai/ha, 0 no effect, 100 complete control
[13] = 31 g ai/ha, scale of 0 to 100 where 0 is no effect and 100 is complete control, 13 to 15 days
[14] = 62 g ai/ha, scale of 0 to 100 where 0 is no effect and 100 is complete control, 13 to 15 days
[15] = 125 g ai/ha, scale of 0 to 100 where 0 is no effect and 100 is complete control, 13 to 15 days
[16] = Postemergence, 125 g ai/ha, 0 is no effect, 100 is complete control
[17] = preemergence, 500 g ai/ha, 0 is no effect and 100 is complete control
[18] = 250 g ai/ha, scale of 0 to 100 where 0 is no effect and 100 is complete control, 13 to 15 days

Row | Structure (SMILES) | Plant response rating, Kochia [1, 11] | Kochia plant response rating (0 to 100 scale, 0 is no effect, 100 is complete control) ([1]; Postemergence, 500 g ai/ha) | Plant response rating, Ragweed [2, 11] | Ragweed plant response rating (0 to 100 scale, 0 is no effect, 100 is complete control) ([2]; Postemergence, 500 g ai/ha) | Plant response rating, Ryegrass, Italian [3, 11] | Ryegrass, Italian plant response rating (0 to 100 scale, 0 is no effect, 100 is complete control) ([3]; Postemergence, 500 g ai/ha) | Galium plant response rating (0 to 100 scale, 0 is no effect, 100 is complete control) [5] | Plant response rating, Rice [6, 15] | Plant response rating, Rice ([6]; 250 g ai/ha, scale 0 to 100) | Plant response rating, Sedge, Umbrella [7, 15] | Plant response rating, Sedge, Umbrella ([7]; 250 g ai/ha, scale 0 to 100) | Plant response rating, Ducksalad [8, 15] | Plant response rating, Ducksalad ([8]; 250 g ai/ha, scale 0 to 100) | Plant response rating, Barnyardgrass [9, 15] | Plant response rating, Barnyardgrass ([9]; 250 g ai/ha, scale 0 to 100) | Plant response rating, Rice ([6]; 500 g ai/ha, scale 0 to 100) | Plant response rating, Rice ([6]; 1000 g ai/ha, scale 0 to 100) | Plant response rating, Sedge, Umbrella ([7]; 500 g ai/ha, scale 0 to 100) | Plant response rating, Sedge, Umbrella ([7]; 1000 g ai/ha, scale 0 to 100) | Plant response rating, Ducksalad ([8]; 500 g ai/ha, scale 0 to 100) | other results
1 | O=C1NCC(c2ccc(F)cc2)C1C(=O)Nc1cccc(F)c1F (racemic) [Compound 119] | 40 | 50 | 70 | 30 | 20 | 40 | 50 | 10 | 20 | 0 | 0 | 100 | 100 | 60 | 75 |  |  |  |  |  | Plant response rating, Kochia [1, 12]: 40; Plant response rating, Kochia ([1]; preemergence, 500 g ai/ha): 60; Plant response rating, Ragweed [2, 12]: 20; Plant response rating, Ragweed ([2]; preemergence, 500 g ai/ha): 80; Plant response rating, Ryegrass, Italian [3, 12]: 20; Plant response rating, Ryegrass, Italian ([3]; preemergence, 500 g ai/ha): 60; Plant response rating, Blackgrass ([4]; 125 g ai/ha, 0 to 100 scale, 0 no effect, 100 complete control): 30; Plant response rating, Blackgrass ([4]; 500 g ai/ha, 0 to 100 scale (0 no effect, 100 complete control)): 50; Plant response rating, Galium ([5]; 0 no effect, 100 complete control): 30; Plant response rating, Rice [6, 13]: 0; Plant response rating, Rice [6, 14]: 0; Plant response rating, Sedge, Umbrella [7, 13]: 0; Plant response rating, Sedge, Umbrella [7, 14]: 0; Plant response rating, Ducksalad [8, 13]: 100; Plant response rating, Ducksalad [8, 14]: 100; Plant response rating, Barnyardgrass [9, 13]: 30; Plant response rating, Barnyardgrass [9, 14]: 50
2 | O=C1NCC(c2cccc(C(F)(F)F)c2)C1C(=O)Nc1ccccc1Cl (racemic) [Compound 189] |  |  |  |  |  |  |  | 0 | 0 | 0 | 0 | 75 | 80 | 10 | 30 | 0 | 0 | 0 | 0 | 95 | Plant response rating, Velvetleaf [10, 11]: 0; Plant response rating, Velvetleaf [10, 16]: 0; Velvetleaf plant response rating (0 to 100 scale, 0 is no effect, 100 is complete control) ([10]; Postemergence, 500 g ai/ha): 0; Plant response rating, Velvetleaf [10, 17]: 0; Plant response rating, Ducksalad ([8]; 1000 g ai/ha, scale 0 to 100): 100; Plant response rating, Barnyardgrass ([9]; 500 g ai/ha, scale 0 to 100): 50; Plant response rating, Barnyardgrass ([9]; 1000 g ai/ha, scale 0 to 100): 75
3 | O=C1NCC(c2cccc(C(F)F)c2)C1C(=O)Nc1cccc(F)c1F (racemic) [Compound 211] | 40 | 60 | 30 | 30 | 0 | 60 | 70 | 0 |  | 0 |  | 60 |  | 0 |  | 15 | 15 | 0 | 30 | 75 | Plant response rating, Kochia [1, 16]: 40; Plant response rating, Kochia [1, 17]: 70; Plant response rating, Ragweed [2, 16]: 0; Plant response rating, Ragweed [2, 17]: 80; Plant response rating, Ryegrass, Italian [3, 16]: 30; Plant response rating, Ryegrass, Italian [3, 17]: 40; Plant response rating, Blackgrass ([4]; 125 g ai/ha, 0 to 100 scale, 0 is no effect, 100 is complete control): 50; Blackgrass plant response rating (0 to 100 scale, 0 is no effect, 100 is complete control) ([4]; 500 g ai/ha): 70; Plant response rating, Galium ([5]; 0 is no effect, 100 is complete control): 60; Plant response rating, Rice [6, 18]: 0; Plant response rating, Sedge, Umbrella [7, 18]: 0; Plant response rating, Ducksalad [8, 18]: 100; Plant response rating, Ducksalad ([8]; 1000 g ai/ha, scale 0 to 100): 100; Plant response rating, Barnyardgrass [9, 18]: 50; Plant response rating, Barnyardgrass ([9]; 500 g ai/ha, scale 0 to 100): 55; Plant response rating, Barnyardgrass ([9]; 1000 g ai/ha, scale 0 to 100): 80

Source: patent US10294202B2, “Pyrrolidinones as herbicides” (FMC Corporation, priority 2013, dated 2019)
